Publication PMC11642016 (International Journal of Molecular Sciences, 2024)
Read-outs that look alike come from different tables or passages of the source.

Key:
[1] = tested on: Fadu cells; assay: CellTiter-Glo luminescent cell viability assay, Fadu; settings: 72 h, 72 h, mean ± SD, n = 2; for viability at 2.8 µM / viability at 8.3 µM / viability at 25 µM: Homo sapiens, FaDu; for viability at 2.8 µM: read-out: Cell Viability (% of Control) 2.8 µM, Fadu; for viability at 8.3 µM: read-out: Cell Viability (% of Control) 8.3 µM, Fadu; for viability at 25 µM: read-out: Cell Viability (% of Control) 25 µM, Fadu; for Cell Viability (% of Control) 2.8 µM / Cell Viability (% of Control) 8.3 µM / Cell Viability (% of Control) 25 µM: Fadu
[2] = tested on: PANC-1 cells; assay: CellTiter-Glo luminescent cell viability assay, PANC-1; settings: 72 h, mean ± SD, n = 2; for viability at 2.8 µM / viability at 8.3 µM / viability at 25 µM: Homo sapiens, PANC-1, 72 h; for viability at 2.8 µM: read-out: Cell Viability (% of Control) 2.8 µM, PANC-1; for viability at 8.3 µM: read-out: Cell Viability (% of Control) 8.3 µM, PANC-1; for viability at 25 µM: read-out: Cell Viability (% of Control) 25 µM, PANC-1; for Cell Viability (% of Control) 2.8 µM / Cell Viability (% of Control) 8.3 µM / Cell Viability (% of Control) 25 µM: PANC-1
Description: Primary fibroblast cultures were prepared from human skin biopsies and maintained in DMEM supplemented with 10% FBS, 1% penicillin-streptomycin, and 1% MEM Non-Essential Amino Acids Solution (Thermo Fisher Scientific). […] All cell lines were cultured in a humidified atmosphere at 37 °C and 5% CO2, passaged twice a week, and the experiments were performed on cells between passage 5 and 15. The cell lines were routinely screened for the absence of mycoplasma infection (DAPI staining).
The effects of the synthesized compounds on cell viability were measured using the CellTiter-Glo® luminescent cell viability assay (Promega, Madison, WI, USA), according to the manufacturer’s instructions. Briefly, cells were seeded onto a flat-bottomed, white 96-well plate (BRANDplates, cat. no.: 781965)), with the following densities: PANC-1: 750 cells/well, Fadu: 2000 cells/well, primary fibroblasts: 2000 cells/well, HEK293T WT: 1000 cells/well, HEK293T CLPP^−/−: 2500 cells/well. After seeding, cells were incubated for a further 48 h before treatment. Cells were treated with the compounds for 72 h. Three concentrations (25.0 µM; 8.3 µM; 2.8 µM) were applied during the initial cell viability screening, while for the determination of dose–response curves, 1.5-fold serially diluted compound concentrations were applied (range: 26 µM–0.7 µM). After treatment, the luminescence signal was recorded using a microplate reader (BioTek Synergy 2 Multi-Mode Reader, BioTek, Winooski, VT, USA).
Data analysis was performed using GraphPad Prism 9.5.0 software (GraphPad Software, San Diego, CA, USA). […] The dose–response curves were generated by four-parameter nonlinear regression, and the IC50 values were determined as the means ± SEM of the best-fit values of 3 independent measurements. The R^2 values were consistently above 0.93, indicating a strong fit of the model to the experimental data (Supplementary S.89). […] Dunnett’s post hoc test was applied to adjust for multiple comparisons, minimizing the likelihood of false positive results. Assumptions for ANOVA, including normality (assessed via QQ plots) and homogeneity of variance (tested using the Brown–Forsythe test), were verified. The following significance levels were applied: * p < 0.05, ** p < 0.01, *** p < 0.001, **** p < 0.0001. […] The tumor selectivity of the compounds was quantitatively characterized by the selectivity index (SI). This parameter was calculated as the ratio of the average best-fit IC50 value for primary fibroblasts and the best-fit IC50 value for the corresponding tumor cells (PANC-1 or Fadu).

## NCC#Cc1cccc(CN2C(=O)C3=C(CCN(Cc4ccc(-n5cc(-c6cccc(F)c6)nn5)cc4)C3)N3CCN=C23)c1 [36a]
[1]; second-set screening
  viability at 2.8 µM: 105 ± 20%
  viability at 8.3 µM: 6 ± 5%
  viability at 25 µM: 0%
[2]; second-set screening
  viability at 2.8 µM: 116 ± 8%
  viability at 8.3 µM: 0%
  viability at 25 µM: 0%

## NCc1cccc(CN2C(=O)C3=C(CCN(Cc4ccc(-n5cc(-[c-]6cccc6)nn5)cc4)C3)N3CCN=C23)c1.[Fe+2].c1cc[cH-]c1 [37a]
[1]; second-set screening
  Cell Viability (% of Control) 2.8 µM: 106 ± 10 % of Control
  Cell Viability (% of Control) 8.3 µM: 70 ± 20 % of Control
  Cell Viability (% of Control) 25 µM: 0 ± 0 % of Control
[2]; second-set screening
  Cell Viability (% of Control) 2.8 µM: 118 ± 4 % of Control
  Cell Viability (% of Control) 8.3 µM: 123 ± 5 % of Control
  Cell Viability (% of Control) 25 µM: 16 ± 8 % of Control

## C=CC(=O)Nc1cccc(-c2cn(-c3ccc(CN4CCC5=C(C4)C(=O)N(Cc4ccc(C#CCN)cc4)C4=NCCN45)cc3)nn2)c1 [1e]
[1]; first-set screening
  viability at 2.8 µM: 96 ± 6%
  viability at 8.3 µM: 59 ± 4%
  viability at 25 µM: 69 ± 2%
[2]; first-set screening
  viability at 2.8 µM: 101 ± 7%
  viability at 8.3 µM: 91 ± 1%
  viability at 25 µM: 102%

## NCC#Cc1cccc(CN2C(=O)C3=C(CCN(Cc4ccc(-n5cc(-c6cc(F)cc(F)c6)nn5)cc4)C3)N3CCN=C23)c1 [36c]
[1]; second-set screening
  viability at 2.8 µM: 111 ± 10%
  viability at 8.3 µM: 5 ± 5%
  viability at 25 µM: 0%
[2]; second-set screening
  viability at 2.8 µM: 111 ± 8%
  viability at 8.3 µM: 0%
  viability at 25 µM: 0%

## NCC#Cc1cccc(CN2C(=O)C3=C(CCN(Cc4cccc(-n5cc(-[c-]6cccc6)nn5)c4)C3)N3CCN=C23)c1.[Fe+2].c1cc[cH-]c1 [4a]
[1]; first-set screening
  Cell Viability (% of Control) 2.8 µM: 102 ± 1 % of Control
  Cell Viability (% of Control) 8.3 µM: 77 ± 3 % of Control
  Cell Viability (% of Control) 25 µM: 0 ± 0 % of Control
[2]; first-set screening
  Cell Viability (% of Control) 2.8 µM: 91 ± 4 % of Control
  Cell Viability (% of Control) 8.3 µM: 73 ± 9 % of Control
  Cell Viability (% of Control) 25 µM: 0 ± 0 % of Control

## CN(C)CC#Cc1cccc(CN2C(=O)C3=C(CCN(Cc4ccc(-n5cc(-[c-]6cccc6)nn5)cc4)C3)N3CCN=C23)c1.[Fe+2].c1cc[cH-]c1 [39a]
[1]; second-set screening
  Cell Viability (% of Control) 2.8 µM: 99 ± 9 % of Control
  Cell Viability (% of Control) 8.3 µM: 45 ± 52 % of Control
  Cell Viability (% of Control) 25 µM: 13 ± 15 % of Control
[2]; second-set screening
  Cell Viability (% of Control) 2.8 µM: 112 ± 7 % of Control
  Cell Viability (% of Control) 8.3 µM: 62 ± 72 % of Control
  Cell Viability (% of Control) 25 µM: 35 ± 41 % of Control

## O=C1C2=C(CCN(Cc3ccc(-n4cc(-[c-]5cccc5)nn4)cc3)C2)N2CCN=C2N1Cc1cccc(C#CCO)c1.[Fe+2].c1cc[cH-]c1 [2c]
[1]; first-set screening
  Cell Viability (% of Control) 2.8 µM: 79 ± 2 % of Control
  Cell Viability (% of Control) 8.3 µM: 76 ± 4 % of Control
  Cell Viability (% of Control) 25 µM: 65 ± 0 % of Control
[2]; first-set screening
  Cell Viability (% of Control) 2.8 µM: 94 ± 2 % of Control
  Cell Viability (% of Control) 8.3 µM: 95 ± 2 % of Control
  Cell Viability (% of Control) 25 µM: 97 ± 2 % of Control

## NCC#Cc1cccc(CN2C(=O)C3=C(CCN(Cc4ccc(C(=O)N[c-]5cccc5)cc4)C3)N3CCN=C23)c1.[Fe+2].c1cc[cH-]c1 [33a]
[1]; second-set screening
  Cell Viability (% of Control) 2.8 µM: 99 ± 2 % of Control
  Cell Viability (% of Control) 8.3 µM: 93 ± 2 % of Control
  Cell Viability (% of Control) 25 µM: 9 ± 8 % of Control
[2]; second-set screening
  Cell Viability (% of Control) 2.8 µM: 102 ± 9 % of Control
  Cell Viability (% of Control) 8.3 µM: 107 ± 9 % of Control
  Cell Viability (% of Control) 25 µM: 4 ± 5 % of Control

## O=C1C2=C(CCN(Cc3ccc(-n4cc(-c5ccccc5)nn4)cc3)C2)N2CCN=C2N1Cc1ccc(F)cc1 [16f]
[1]; first-set screening
  viability at 2.8 µM: 100 ± 1%
  viability at 8.3 µM: 94 ± 1%
  viability at 25 µM: 77 ± 4%
[2]; first-set screening
  viability at 2.8 µM: 81 ± 3%
  viability at 8.3 µM: 68 ± 4%
  viability at 25 µM: 60 ± 1%
